Experimental data published in ChEMBL document CHEMBL3232845 (Bioorg Med Chem Lett, 2014).

Key:
[1] = biological target: Serine/threonine-protein kinase D1 (Homo sapiens) (UniProt Q15139); experiment: Inhibition of human PKD1 assessed as enzyme activity at 1 uM relative to control; parameters: scale not given: the % may be the effect or the level left
[2] = biological target: Serine/threonine-protein kinase PLK3 (Homo sapiens) (UniProt Q9H4B4); experiment: Inhibition of human Plk3 assessed as enzyme activity at 1 uM relative to control; parameters: scale not given: the % may be the effect or the level left
[3] = biological target: Serine/threonine-protein kinase NLK (Homo sapiens) (UniProt Q9UBE8); experiment: Inhibition of human NLK assessed as enzyme activity at 1 uM relative to control; parameters: scale not given: the % may be the effect or the level left
[4] = biological target: Protein kinase C epsilon type (Homo sapiens) (UniProt Q02156); experiment: Inhibition of human PKCepsilon assessed as enzyme activity at 1 uM relative to control; parameters: scale not given: the % may be the effect or the level left
[5] = biological target: Tyrosine-protein kinase Fyn (Homo sapiens) (UniProt P06241); experiment: Inhibition of human Fyn assessed as enzyme activity at 1 uM relative to control; parameters: scale not given: the % may be the effect or the level left
[6] = biological target: Tyrosine-protein kinase ABL2 (Homo sapiens) (UniProt P42684); experiment: Inhibition of human Abl2 assessed as enzyme activity at 1 uM relative to control; parameters: scale not given: the % may be the effect or the level left
[7] = biological target: Glycogen synthase kinase-3 alpha (Homo sapiens) (UniProt P49840); experiment: Inhibition of human GSK3alpha assessed as enzyme activity at 1 uM relative to control; parameters: scale not given: the % may be the effect or the level left
[8] = biological target: Dual specificity mitogen-activated protein kinase kinase 7 (Homo sapiens) (UniProt O14733); experiment: Inhibition of human MKK7 assessed as enzyme activity at 1 uM relative to control; parameters: scale not given: the % may be the effect or the level left
[9] = biological target: Homeodomain-interacting protein kinase 3 (Homo sapiens) (UniProt Q9H422); experiment: Inhibition of human HIPK3 assessed as enzyme activity at 1 uM relative to control; parameters: scale not given: the % may be the effect or the level left
[10] = biological target: Tyrosine-protein kinase ZAP-70 (Homo sapiens) (UniProt P43403); experiment: Inhibition of human ZAP-70 assessed as enzyme activity at 1 uM relative to control; parameters: scale not given: the % may be the effect or the level left
[11] = biological target: Serine/threonine-protein kinase TBK1 (Homo sapiens) (UniProt Q9UHD2); experiment: Inhibition of human TBK1 assessed as enzyme activity at 1 uM relative to control; parameters: scale not given: the % may be the effect or the level left
[12] = biological target: Mitogen-activated protein kinase 9 (Homo sapiens) (UniProt P45984); experiment: Inhibition of human JNK2alpha2 assessed as enzyme activity at 1 uM relative to control; parameters: scale not given: the % may be the effect or the level left
[13] = biological target: Serine/threonine-protein kinase Sgk2 (Homo sapiens) (UniProt Q9HBY8); experiment: Inhibition of human SGK2 assessed as enzyme activity at 1 uM relative to control; parameters: scale not given: the % may be the effect or the level left
Chain of Serine/threonine-protein kinase Sgk2 (Homo sapiens) (Q9HBY8 whole entry): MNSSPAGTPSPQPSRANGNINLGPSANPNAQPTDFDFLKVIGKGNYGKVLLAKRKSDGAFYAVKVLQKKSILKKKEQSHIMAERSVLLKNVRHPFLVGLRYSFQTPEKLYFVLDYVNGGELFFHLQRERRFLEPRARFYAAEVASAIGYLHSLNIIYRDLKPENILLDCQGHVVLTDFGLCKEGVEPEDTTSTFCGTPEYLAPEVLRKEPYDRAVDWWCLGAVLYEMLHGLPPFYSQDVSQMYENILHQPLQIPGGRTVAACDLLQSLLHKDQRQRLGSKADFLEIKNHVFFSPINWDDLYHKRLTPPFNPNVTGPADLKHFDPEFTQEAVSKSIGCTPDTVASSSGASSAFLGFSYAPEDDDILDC

[14] = biological target: Ribosomal protein S6 kinase alpha-6 (Homo sapiens) (UniProt Q9UK32); experiment: Inhibition of human Rsk4 assessed as enzyme activity at 1 uM relative to control; parameters: scale not given: the % may be the effect or the level left
Chain of Ribosomal protein S6 kinase alpha-6 (Homo sapiens) (Q9UK32 whole entry, looked up): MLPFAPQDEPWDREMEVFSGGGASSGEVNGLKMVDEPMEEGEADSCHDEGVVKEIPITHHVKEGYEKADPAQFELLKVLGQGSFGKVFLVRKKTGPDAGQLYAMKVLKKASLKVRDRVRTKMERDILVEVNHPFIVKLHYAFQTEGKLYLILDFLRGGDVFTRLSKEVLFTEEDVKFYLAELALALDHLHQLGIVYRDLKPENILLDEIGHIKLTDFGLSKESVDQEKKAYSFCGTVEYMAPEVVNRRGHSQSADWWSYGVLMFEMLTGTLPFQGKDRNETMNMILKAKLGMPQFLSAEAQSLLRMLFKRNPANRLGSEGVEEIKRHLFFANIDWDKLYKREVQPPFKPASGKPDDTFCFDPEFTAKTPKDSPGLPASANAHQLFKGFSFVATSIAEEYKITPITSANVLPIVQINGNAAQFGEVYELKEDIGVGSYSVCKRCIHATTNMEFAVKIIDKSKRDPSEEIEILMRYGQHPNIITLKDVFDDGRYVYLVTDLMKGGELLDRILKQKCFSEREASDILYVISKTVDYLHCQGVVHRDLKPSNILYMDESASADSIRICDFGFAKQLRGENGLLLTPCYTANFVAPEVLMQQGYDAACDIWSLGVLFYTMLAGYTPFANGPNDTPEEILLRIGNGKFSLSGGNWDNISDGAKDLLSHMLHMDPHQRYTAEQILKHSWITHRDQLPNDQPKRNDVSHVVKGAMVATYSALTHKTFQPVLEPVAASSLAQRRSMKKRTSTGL

[15] = biological target: Testis-specific serine/threonine-protein kinase 2 (Homo sapiens) (UniProt Q96PF2); experiment: Inhibition of human TSSK2 assessed as enzyme activity at 1 uM relative to control; parameters: scale not given: the % may be the effect or the level left
[16] = biological target: Inhibitor of nuclear factor kappa-B kinase subunit alpha (Homo sapiens) (UniProt O15111); experiment: Inhibition of human IKKalpha assessed as enzyme activity at 1 uM relative to control; parameters: scale not given: the % may be the effect or the level left
Chain of Inhibitor of nuclear factor kappa-B kinase subunit alpha (Homo sapiens) (O15111 whole entry): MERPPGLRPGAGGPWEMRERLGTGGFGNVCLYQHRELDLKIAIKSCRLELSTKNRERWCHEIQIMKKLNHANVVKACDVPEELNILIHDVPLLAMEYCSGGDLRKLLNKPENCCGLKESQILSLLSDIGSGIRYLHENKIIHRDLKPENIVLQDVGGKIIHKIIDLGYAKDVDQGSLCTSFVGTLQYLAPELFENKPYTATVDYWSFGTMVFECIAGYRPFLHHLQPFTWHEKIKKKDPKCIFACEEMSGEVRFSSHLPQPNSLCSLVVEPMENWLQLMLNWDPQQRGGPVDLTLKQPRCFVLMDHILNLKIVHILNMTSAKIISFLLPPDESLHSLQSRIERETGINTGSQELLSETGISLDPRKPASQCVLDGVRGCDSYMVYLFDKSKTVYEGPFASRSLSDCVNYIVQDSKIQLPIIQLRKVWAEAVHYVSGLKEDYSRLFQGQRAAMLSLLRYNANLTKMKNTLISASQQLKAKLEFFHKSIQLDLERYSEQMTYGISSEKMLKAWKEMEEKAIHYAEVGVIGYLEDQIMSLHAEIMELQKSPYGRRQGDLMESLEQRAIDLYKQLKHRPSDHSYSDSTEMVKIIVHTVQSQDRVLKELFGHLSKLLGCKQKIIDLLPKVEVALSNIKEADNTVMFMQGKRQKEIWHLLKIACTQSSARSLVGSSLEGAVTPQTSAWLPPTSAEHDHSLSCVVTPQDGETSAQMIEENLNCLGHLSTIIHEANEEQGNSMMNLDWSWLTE

[17] = biological target: Receptor tyrosine-protein kinase erbB-4 (Homo sapiens) (UniProt Q15303); experiment: Inhibition of human ErbB4 assessed as enzyme activity at 1 uM relative to control; parameters: scale not given: the % may be the effect or the level left
[18] = biological target: Mitogen-activated protein kinase kinase kinase 5 (Homo sapiens) (UniProt Q99683); experiment: Inhibition of human MAP3K5 assessed as enzyme activity at 1 uM relative to control; parameters: scale not given: the % may be the effect or the level left
[19] = biological target: Serine/threonine-protein kinase Nek6 (Homo sapiens) (UniProt Q9HC98); experiment: Inhibition of human NEK6 assessed as enzyme activity at 1 uM relative to control; parameters: scale not given: the % may be the effect or the level left
[20] = biological target: Proto-oncogene tyrosine-protein kinase receptor Ret (Homo sapiens) (UniProt P07949); experiment: Inhibition of human Ret assessed as enzyme activity at 1 uM relative to control; parameters: scale not given: the % may be the effect or the level left
[21] = biological target: Casein kinase I isoform gamma-3 (Homo sapiens) (UniProt Q9Y6M4); experiment: Inhibition of human CK1gamma3 assessed as enzyme activity at 1 uM relative to control; parameters: scale not given: the % may be the effect or the level left
[22] = biological target: Tyrosine-protein kinase receptor UFO (Homo sapiens) (UniProt P30530); experiment: Inhibition of human Axl assessed as enzyme activity at 1 uM relative to control; parameters: scale not given: the % may be the effect or the level left
[23] = biological target: Tyrosine-protein kinase Tec (Homo sapiens) (UniProt P42680); experiment: Inhibition of human activated TEC assessed as enzyme activity at 1 uM relative to control; parameters: scale not given: the % may be the effect or the level left
[24] = biological target: Serine/threonine-protein kinase tousled-like 2 (Homo sapiens) (UniProt Q86UE8); experiment: Inhibition of human TLK2 assessed as enzyme activity at 1 uM relative to control; parameters: scale not given: the % may be the effect or the level left
[25] = biological target: Serine/threonine-protein kinase BRSK2 (Homo sapiens) (UniProt Q8IWQ3); experiment: Inhibition of human BrSK2 assessed as enzyme activity at 1 uM relative to control; parameters: scale not given: the % may be the effect or the level left
[26] = biological target: Mitogen-activated protein kinase 13 (Homo sapiens) (UniProt O15264); experiment: Inhibition of human p38delta assessed as enzyme activity at 1 uM relative to control; parameters: scale not given: the % may be the effect or the level left
Chain of Mitogen-activated protein kinase 13 (Homo sapiens) (O15264 whole entry): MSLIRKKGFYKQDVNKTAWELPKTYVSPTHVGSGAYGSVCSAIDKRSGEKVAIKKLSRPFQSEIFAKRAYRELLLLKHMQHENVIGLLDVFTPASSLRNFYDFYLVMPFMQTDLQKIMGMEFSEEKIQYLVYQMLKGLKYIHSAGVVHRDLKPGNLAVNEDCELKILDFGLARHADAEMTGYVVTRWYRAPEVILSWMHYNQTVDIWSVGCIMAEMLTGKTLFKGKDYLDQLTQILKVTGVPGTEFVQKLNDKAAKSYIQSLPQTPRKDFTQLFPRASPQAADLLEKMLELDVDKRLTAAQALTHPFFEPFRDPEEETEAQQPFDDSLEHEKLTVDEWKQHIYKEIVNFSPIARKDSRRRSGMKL

[27] = biological target: Death-associated protein kinase 2 (Homo sapiens) (UniProt Q9UIK4); experiment: Inhibition of human DAPK2 assessed as enzyme activity at 1 uM relative to control; parameters: scale not given: the % may be the effect or the level left
[28] = biological target: Ephrin type-B receptor 4 (Homo sapiens) (UniProt P54760); experiment: Inhibition of human EphB4 assessed as enzyme activity at 1 uM relative to control; parameters: scale not given: the % may be the effect or the level left
[29] = biological target: Serine/threonine-protein kinase 10 (Homo sapiens) (UniProt O94804); experiment: Inhibition of human LOK assessed as enzyme activity at 1 uM relative to control; parameters: scale not given: the % may be the effect or the level left
Chain of Serine/threonine-protein kinase 10 (Homo sapiens) (O94804 whole entry, looked up): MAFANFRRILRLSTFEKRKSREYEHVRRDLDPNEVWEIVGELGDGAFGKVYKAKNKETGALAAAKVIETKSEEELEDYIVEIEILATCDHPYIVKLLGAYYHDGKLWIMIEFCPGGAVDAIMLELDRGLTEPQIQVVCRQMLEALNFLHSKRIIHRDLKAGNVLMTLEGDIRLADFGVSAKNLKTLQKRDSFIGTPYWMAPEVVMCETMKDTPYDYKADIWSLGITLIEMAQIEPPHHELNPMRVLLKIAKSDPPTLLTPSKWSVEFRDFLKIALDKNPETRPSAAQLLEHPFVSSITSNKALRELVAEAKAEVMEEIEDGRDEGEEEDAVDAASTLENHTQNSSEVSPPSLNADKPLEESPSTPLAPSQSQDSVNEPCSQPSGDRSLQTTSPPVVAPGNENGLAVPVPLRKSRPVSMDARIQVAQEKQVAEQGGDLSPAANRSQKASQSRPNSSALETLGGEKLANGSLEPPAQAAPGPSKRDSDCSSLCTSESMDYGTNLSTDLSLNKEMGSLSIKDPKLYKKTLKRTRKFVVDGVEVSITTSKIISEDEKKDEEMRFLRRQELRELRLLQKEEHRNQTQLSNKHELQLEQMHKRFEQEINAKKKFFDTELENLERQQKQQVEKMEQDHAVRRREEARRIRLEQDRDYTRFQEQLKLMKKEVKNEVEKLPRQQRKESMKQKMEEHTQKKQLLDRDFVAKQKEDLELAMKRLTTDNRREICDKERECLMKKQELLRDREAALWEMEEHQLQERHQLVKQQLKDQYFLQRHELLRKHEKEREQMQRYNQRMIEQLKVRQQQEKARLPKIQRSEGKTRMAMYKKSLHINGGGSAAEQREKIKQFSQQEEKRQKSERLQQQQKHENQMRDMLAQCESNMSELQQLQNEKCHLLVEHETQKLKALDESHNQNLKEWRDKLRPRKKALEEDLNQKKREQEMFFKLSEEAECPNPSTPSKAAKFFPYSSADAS

[30] = biological target: RAF proto-oncogene serine/threonine-protein kinase (Homo sapiens) (UniProt P04049); experiment: Inhibition of human c-RAF assessed as enzyme activity at 1 uM relative to control; parameters: scale not given: the % may be the effect or the level left
Chain of RAF proto-oncogene serine/threonine-protein kinase (Homo sapiens) (P04049 whole entry): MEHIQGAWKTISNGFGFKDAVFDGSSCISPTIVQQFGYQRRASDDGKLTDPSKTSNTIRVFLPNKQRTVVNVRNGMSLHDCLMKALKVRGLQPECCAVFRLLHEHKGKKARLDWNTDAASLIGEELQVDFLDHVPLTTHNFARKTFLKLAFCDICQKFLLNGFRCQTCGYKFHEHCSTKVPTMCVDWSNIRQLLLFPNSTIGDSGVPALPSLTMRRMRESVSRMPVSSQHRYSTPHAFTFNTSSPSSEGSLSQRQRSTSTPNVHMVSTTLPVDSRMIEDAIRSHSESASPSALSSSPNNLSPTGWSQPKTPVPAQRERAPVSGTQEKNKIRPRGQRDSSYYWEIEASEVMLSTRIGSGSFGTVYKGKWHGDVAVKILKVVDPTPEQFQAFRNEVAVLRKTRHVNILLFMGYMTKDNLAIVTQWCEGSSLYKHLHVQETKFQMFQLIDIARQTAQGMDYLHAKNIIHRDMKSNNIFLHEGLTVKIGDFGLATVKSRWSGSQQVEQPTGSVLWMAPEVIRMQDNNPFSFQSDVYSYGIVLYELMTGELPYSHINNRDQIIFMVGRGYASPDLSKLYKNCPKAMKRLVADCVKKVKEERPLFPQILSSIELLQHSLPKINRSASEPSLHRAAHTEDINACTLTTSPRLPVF

[31] = biological target: Serine/threonine-protein kinase 33 (Homo sapiens) (UniProt Q9BYT3); experiment: Inhibition of human STK33 assessed as enzyme activity at 1 uM relative to control; parameters: scale not given: the % may be the effect or the level left
[32] = AUC in mouse at 30 mg/kg, po; format: ADME, organism-based; parameters: dose 30 mg/kg, route oral; conditions: plasma
[33] = biological target: Serine/threonine-protein kinase Nek3 (Homo sapiens) (UniProt P51956); experiment: Inhibition of human NEK3 assessed as enzyme activity at 1 uM relative to control; parameters: scale not given: the % may be the effect or the level left
[34] = biological target: Cyclin-dependent kinase 1/cyclin B1 (Homo sapiens) (UniProt P06493+P14635); experiment: Inhibition of human CDK1/cyclinB assessed as enzyme activity at 1 uM relative to control; format: protein-complex assay; parameters: scale not given: the % may be the effect or the level left
Chain of Cyclin-dependent kinase 1/cyclin B1 (Homo sapiens) (P06493 whole entry, looked up): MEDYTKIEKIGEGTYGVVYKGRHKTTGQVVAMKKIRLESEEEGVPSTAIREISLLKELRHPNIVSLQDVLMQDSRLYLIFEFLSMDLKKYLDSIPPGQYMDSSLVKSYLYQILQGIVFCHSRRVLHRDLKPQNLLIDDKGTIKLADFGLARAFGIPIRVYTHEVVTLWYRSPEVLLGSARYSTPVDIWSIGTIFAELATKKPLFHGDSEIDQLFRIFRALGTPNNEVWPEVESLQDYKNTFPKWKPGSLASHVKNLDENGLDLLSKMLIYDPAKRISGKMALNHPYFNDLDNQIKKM
Chain of Cyclin-dependent kinase 1/cyclin B1 (Homo sapiens) (P14635 whole entry, looked up): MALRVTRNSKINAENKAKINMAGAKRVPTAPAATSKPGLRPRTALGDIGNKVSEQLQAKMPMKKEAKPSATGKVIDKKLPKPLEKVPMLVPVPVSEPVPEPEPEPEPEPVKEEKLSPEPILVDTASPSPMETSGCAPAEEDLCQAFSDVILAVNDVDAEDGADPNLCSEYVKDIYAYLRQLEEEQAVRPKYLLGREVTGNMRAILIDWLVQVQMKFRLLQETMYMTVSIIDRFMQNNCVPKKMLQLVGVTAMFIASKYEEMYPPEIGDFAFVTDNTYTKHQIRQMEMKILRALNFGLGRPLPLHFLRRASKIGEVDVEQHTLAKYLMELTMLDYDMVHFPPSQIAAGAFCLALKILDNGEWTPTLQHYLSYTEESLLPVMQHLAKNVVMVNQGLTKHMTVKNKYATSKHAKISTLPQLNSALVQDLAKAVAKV

[35] = biological target: Tyrosine-protein kinase ITK/TSK (Homo sapiens) (UniProt Q08881); experiment: Inhibition of human ITK assessed as enzyme activity at 1 uM relative to control; parameters: scale not given: the % may be the effect or the level left
[36] = biological target: Serine/threonine-protein kinase 24 (Homo sapiens) (UniProt Q9Y6E0); experiment: Inhibition of human MST3 assessed as enzyme activity at 1 uM relative to control; parameters: scale not given: the % may be the effect or the level left
[37] = biological target: Mitogen-activated protein kinase 8 (Homo sapiens) (UniProt P45983); experiment: Inhibition of human JNK1alpha1 assessed as enzyme activity at 1 uM relative to control; parameters: scale not given: the % may be the effect or the level left
Chain of Mitogen-activated protein kinase 8 (Homo sapiens) (P45983 whole entry): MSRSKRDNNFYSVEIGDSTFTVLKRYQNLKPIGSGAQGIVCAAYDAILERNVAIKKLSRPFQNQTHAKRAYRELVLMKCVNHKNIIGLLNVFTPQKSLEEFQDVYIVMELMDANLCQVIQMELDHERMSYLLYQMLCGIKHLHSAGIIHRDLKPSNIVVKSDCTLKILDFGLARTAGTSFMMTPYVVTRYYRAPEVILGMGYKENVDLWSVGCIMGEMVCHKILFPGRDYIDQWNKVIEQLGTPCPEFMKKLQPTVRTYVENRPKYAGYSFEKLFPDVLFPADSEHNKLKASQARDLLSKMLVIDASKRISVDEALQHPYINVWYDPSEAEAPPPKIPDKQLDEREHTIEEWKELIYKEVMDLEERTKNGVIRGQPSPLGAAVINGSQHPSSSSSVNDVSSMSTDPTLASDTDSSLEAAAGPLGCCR

[38] = biological target: Ephrin type-A receptor 5 (Homo sapiens) (UniProt P54756); experiment: Inhibition of human EphA5 assessed as enzyme activity at 1 uM relative to control; parameters: scale not given: the % may be the effect or the level left

## CCCS(=O)(=O)Nc1cccc(Nc2ccc3ncn(C)c(=O)c3c2)c1C#N
[1]
  Activity: 127%
[2]
  Activity: 99.5%
[3]
  Activity: 102%
[4]
  Activity: 99.5%
[5]
  Activity: 91.5%
[6]
  Activity: 108%
[7]
  Activity: 122%
[8]
  Activity: 121%
[9]
  Activity: 106%
[10]
  Activity: 112%
[11]
  Activity: 98%
[12]
  Activity: 106%
[13]
  Activity: 109%
[14]
  Activity: 120%
[15]
  Activity: 118%
[16]
  Activity: 129%
[17]
  Activity: 106%
[18]
  Activity: 96%
[19]
  Activity: 116%
[20]
  Activity: 98.5%
[21]
  Activity: 91.5%
[22]
  Activity: 93%
[23]
  Activity: 102%
[24]
  Activity: 104%
[25]
  Activity: 100%
[26]
  Activity: 96%
[27]
  Activity: 108%
[28]
  Activity: 104%
[29]
  Activity: 40.5%
[30]
  Activity: 1.5%
[31]
  Activity: 91%
[32]
  AUC: 483 µM·h
[33]
  Activity: 112%
[34]
  Activity: 103%
[35]
  Activity: 102%
[36]
  Activity: 100%
[37]
  Activity: 102%
[38]
  Activity: 103%
